Assay results taken from patent US12281122B1, “PI3K inhibitors” (Cogent Biosciences, Inc., priority 2023, dated 2025).

What was measured:
[1] = test system: T47D (PI3Kα-H1047R) cell line; assay: HTRF phospho-AKT(S473) cell assay in T47D cells; format: cell-based, human; settings: Homo sapiens; T47D (PI3Kα-H1047R) cells, HTRF phospho-AKT(S473), 2 hours compound incubation
Outline: (§1)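 T47D: RPMI + 10% FBS + 0.2 units/mL insulin, top 5 μM. SKBR3: McCoy's 5A + 10% FBS, top 10 μM, 70 ng/ml PDGF-BB last 15 min. Both: 12-pt 1:3, 2 h, 37° C, max 0.5% DMSO; HTRF pAKT(S473); IC50.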

[2] = test system: SKBR3 (PI3Kα-Wild Type) cell line; assay: HTRF phospho-AKT(S473) cell assay in SKBR3 cells; format: cell-based, human; settings: Homo sapiens, SK-BR-3; SKBR3 (PI3Kα-Wild Type) cells, HTRF phospho-AKT(S473), 2 hours compound incubation, PDGF-BB stimulated
Outline: as §1

SMILES	IC50 [1]	IC50 [2]
C[C@@H](Nc1ccc(Cl)nc1C(=O)NS(C)(=O)=O)c1cc(F)cc2c(=O)n(C)c(N3CCC(c4nn(C)cc4F)CC3)nc12 [Compound 364, (R)-6-chloro-3-((1-(6-fluoro-2-(4-(4-fluoro-1-methyl-1H-pyrazol-3-yl)piperidin-1-yl)-3-methyl-4-oxo-3,4-dihydroquinazolin-8-yl)ethyl)amino)-N-(methylsulfonyl) picolinamide]	250 to 500 nM	1000 to 5000 nM
Cc1cc([C@@H](C)Nc2ccc(Cl)nc2C(=O)NS(C)(=O)=O)c2nc(N3CCC[C@@H](Oc4ccc(C)nc4)C3)n(C)c(=O)c2c1 [Compound 368, 6-chloro-3-(((R)-1-(3,6-dimethyl-2-((R)-3-((6-methylpyridin-3-yl)oxy)piperidin-1-yl)-4-oxo-3,4-dihydroquinazolin-8-yl)ethyl)amino)-N-(methylsulfonyl) picolinamide]	250 to 500 nM	≥ 5000 nM
C[C@@H](Nc1ccc(Cl)nc1C(=O)NS(C)(=O)=O)c1cc(F)cc2c(=O)n(C)c(N3C[C@@H]4[C@H](C3)[C@H]4c3ccn(C)n3)nc12 [Compound 373, 6-chloro-3-(((R)-1-(6-fluoro-3-methyl-2-((1R,5S,6R)-6-(1-methyl-1H-pyrazol-3-yl)-3-azabicyclo[3.1.0]hexan-3-yl)-4-oxo-3,4-dihydroquinazolin-8-yl)ethyl)amino)-N-(methylsulfonyl) picolinamide]	250 to 500 nM	1000 to 5000 nM
Cc1cc([C@@H](C)Nc2ccc(Cl)nc2C(=O)NS(C)(=O)=O)c2nc(N3CCC[C@@H](Oc4cnccn4)C3)n(C)c(=O)c2c1 [Compound 375, 6-chloro-3-(((R)-1-(3,6-dimethyl-4-oxo-2-((R)-3-(pyrazin-2-yloxy)piperidin-1-yl)-3,4-dihydroquinazolin-8-yl)ethyl)amino)-N-(methylsulfonyl) picolinamide]	250 to 500 nM	≥ 5000 nM
Cc1cc([C@@H](C)Nc2ccc(Cl)nc2C(=O)NS(C)(=O)=O)c2nc(N3CCC[C@@H](Oc4cnc(C)cn4)C3)n(C)c(=O)c2c1 [Compound 376, 6-chloro-3-(((R)-1-(3,6-dimethyl-2-((R)-3-((5-methylpyrazin-2-yl)oxy)piperidin-1-yl)-4-oxo-3,4-dihydroquinazolin-8-yl)ethyl)amino)-N-(methylsulfonyl) picolinamide]	250 to 500 nM	≥ 5000 nM
Cc1cc([C@@H](C)Nc2ccc(Cl)nc2C(=O)NS(C)(=O)=O)c2nc(N3CCC[C@H](Oc4cnccn4)C3)n(C)c(=O)c2c1 [Compound 377, 6-chloro-3-(((R)-1-(3,6-dimethyl-4-oxo-2-((S)-3-(pyrazin-2-yloxy)piperidin-1-yl)-3,4-dihydroquinazolin-8-yl)ethyl)amino)-N-(methylsulfonyl) picolinamide]	250 to 500 nM	≥ 5000 nM
CO[C@H]1C[C@@H](S(=O)(=O)NC(=O)c2nc(Cl)ccc2N[C@H](C)c2cc(C)cc3c(=O)n(C)c(N4Cc5ccc(F)cc5C4)nc23)C1 [Compound 378, 6-chloro-3-(((R)-1-(2-(5-fluoroisoindolin-2-yl)-3,6-dimethyl-4-oxo-3,4-dihydroquinazolin-8-yl)ethyl)amino)-N-(((1s,3S)-3-methoxycyclobutyl)sulfonyl)picolinamide]	250 to 500 nM	≥ 5000 nM
CO[C@H]1C[C@H](S(=O)(=O)NC(=O)c2nc(Cl)ccc2N[C@H](C)c2cc(C)cc3c(=O)n(C)c(N4Cc5ccc(F)cc5C4)nc23)C1 [Compound 379, 6-chloro-3-(((R)-1-(2-(5-fluoroisoindolin-2-yl)-3,6-dimethyl-4-oxo-3,4-dihydroquinazolin-8-yl)ethyl)amino)-N-(((1r,3R)-3-methoxycyclobutyl)sulfonyl)picolinamide]	250 to 500 nM	≥ 5000 nM
C[C@@H](Nc1ccc(Cl)nc1C(=O)NS(C)(=O)=O)c1cc(C2CC2)cc2c(=O)n(C)c(N3C[C@@H]4[C@H](C3)[C@H]4c3ccn(C)n3)nc12 [Compound 382, 6-chloro-3-(((R)-1-(6-cyclopropyl-3-methyl-2-((1R,5S,6R)-6-(1-methyl-1H-pyrazol-3-yl)-3-azabicyclo[3.1.0]hexan-3-yl)-4-oxo-3,4-dihydroquinazolin-8-yl)ethyl)amino)-N-(methylsulfonyl) picolinamide]	250 to 500 nM	1000 to 5000 nM

Further lines, results first:

IC50 [1]	IC50 [2]	SMILES
< 250 nM	1000 to 5000 nM	Cc1ccc(C2CCN(c3nc4c([C@@H](C)Nc5ccc(Cl)nc5C(=O)NS(C)(=O)=O)cc(F)cc4c(=O)n3C)CC2)cn1 [Compound 365, (R)-6-chloro-3-((1-(6-fluoro-3-methyl-2-(4-(6-methylpyridin-3-yl)piperidin-1-yl)-4-oxo-3,4-dihydroquinazolin-8-yl)ethyl)amino)-N-(methylsulfonyl) picolinamide]
< 250 nM	1000 to 5000 nM	C[C@@H](Nc1ccc(Cl)nc1C(=O)NS(C)(=O)=O)c1cc(F)cc2c(=O)n(C)c(N3CCC(c4ccn(C)n4)CC3)nc12 [Compound 366, (R)-6-chloro-3-((1-(6-fluoro-3-methyl-2-(4-(1-methyl-1H-pyrazol-3-yl)piperidin-1-yl)-4-oxo-3,4-dihydroquinazolin-8-yl)ethyl)amino)-N-(methylsulfonyl) picolinamide]
< 250 nM	1000 to 5000 nM	Cc1cc([C@@H](C)Nc2ccc(Cl)nc2C(=O)NS(C)(=O)=O)c2nc(N3CCN(c4cnc(C)cn4)CC3)n(C)c(=O)c2c1 [Compound 369, (R)-6-chloro-3-((1-(3,6-dimethyl-2-(4-(5-methylpyrazin-2-yl)piperazin-1-yl)-4-oxo-3,4-dihydroquinazolin-8-yl)ethyl)amino)-N-(methylsulfonyl) picolinamide]
< 250 nM	1000 to 5000 nM	Cc1cc([C@@H](C)Nc2ccc(Cl)nc2C(=O)NS(C)(=O)=O)c2nc(N3CCC(c4cccc(=O)n4C)CC3)n(C)c(=O)c2c1 [Compound 370, (R)-6-chloro-3-((1-(3,6-dimethyl-2-(4-(1-methyl-6-oxo-1,6-dihydropyridin-2-yl)piperidin-1-yl)-4-oxo-3,4-dihydroquinazolin-8-yl)ethyl)amino)-N-(methylsulfonyl) picolinamide]
< 250 nM	1000 to 5000 nM	Cc1cc([C@@H](C)Nc2ccc(Cl)nc2C(=O)NS(C)(=O)=O)c2nc(N3CCC4(CCN(c5ccn(C)n5)C4)C3)n(C)c(=O)c2c1 (stereo partly drawn) [Compound 371, 6-chloro-3-(((1R)-1-(3,6-dimethyl-2-(7-(1-methyl-1H-pyrazol-3-yl)-2,7-diazaspiro[4.4]nonan-2-yl)-4-oxo-3,4-dihydroquinazolin-8-yl)ethyl)amino)-N-(methylsulfonyl) picolinamide]
< 250 nM	1000 to 5000 nM	Cc1cc([C@@H](C)Nc2ccc(Cl)nc2C(=O)NS(C)(=O)=O)c2nc(N3CCC(c4ccn(C)n4)CC3)n(C3CC3)c(=O)c2c1 [Compound 372, (R)-6-chloro-3-((1-(3-cyclopropyl-6-methyl-2-(4-(1-methyl-1H-pyrazol-3-yl)piperidin-1-yl)-4-oxo-3,4-dihydroquinazolin-8-yl)ethyl)amino)-N-(methylsulfonyl) picolinamide]
< 250 nM	1000 to 5000 nM	C[C@@H](Nc1ccc(Cl)nc1C(=O)NS(C)(=O)=O)c1cc(F)cc2c(=O)n(C)c(N3C[C@@H]4[C@H](C3)[C@H]4c3ccnn3C)nc12 [Compound 374, 6-chloro-3-(((R)-1-(6-fluoro-3-methyl-2-((1R,5S,6R)-6-(1-methyl-1H-pyrazol-5-yl)-3-azabicyclo[3.1.0]hexan-3-yl)-4-oxo-3,4-dihydroquinazolin-8-yl)ethyl)amino)-N-(methylsulfonyl) picolinamide]
